1 compound from patent US9012404B2, “Compositions and methods for cardiac tissue protection and regeneration” (3D Matrix, Inc., priority 2006, dated 2015) can be followed below.

Data set [1] has as its system rabbits. The settings on record: rabbit, in vivo.
Method: A 0.5% w/v peptide CardioMatrix solution was extracted in NaCl and CSO at a ratio of 0.2 gm per 1.0 mL at 70±2° C. for 24 hours. […] Three rabbits were injected intracutaneously, using one side of the animal for the test article extracts and the other side for the control extracts, at 0.2 mL per site. The injected sites were examined at 24, 48, and 72 hours post inoculation for gross evidence of tissue reaction such as erythema, edema, and necrosis. A Primary Irritation Index of 0.5 or less will be considered a negligible irritant, where 0.5 to <2 are slight irritants, 2 to <5 are moderate irritants, and >5 are severe irritants.
Details of data set [2]: species or system Sprague Dawley rats. The settings on record: rat, in vivo. From the text:
To measure the local and whole animal distribution a 14C, carbon radiolabeled version of a Cardiomatrix was generated. The radiolabeled version was internally labeled at the third alanine site (Acetyl-(RADA)-(R-[^14C(U)-Ala]-D-A)-(RADA)2-CONH2) as opposed to a labeled acetyl group which could be cleaved off, in order to better characterize the adsorption, degradation, metabolism and excretion (ADME) of the CardioMatrix material in vivo. The radiolabeled material was then implanted into Sprague Dawley rats in a femur defect model. Urine and stool samples were collected and the radioactivity was counted.

In data set [3] the test system is L929 mouse fibroblast cell culture. The experiment in a line: Cytotoxicity: Agar Diffusion ISO 10993-5. Type of data set: cell-based. The settings on record: L929 mouse fibroblast monolayer. The source says:
(§1) Standard in vitro toxicology studies, including EN/ISO tests for cytotoxicity and hemocompatibility, have been completed. The tests below were completed at a FDA certified toxicology testing company (Toxikon Corp, Bedford, Mass.) using established standards of measure on a CardioMatrix material (Tables 3 and 4). The CardioMatrix solution tested in this example comprised various concentrations of CardioMatrix powder in substantially sucrose free aqueous solution.
The Agar Diffusion test (ISO 10993-5) measures a material's effect on cell cultures, which are extremely sensitive to minute quantities of leachable chemicals and readily display characteristic signs of toxicity in the presence of potentially harmful leachables. The biological reactivity of a mammalian monolayer, L929 mouse fibroblast cell culture, in response to the test article was determined as “no-reactivity” in tests.
On the technique in general: Agar diffusion results depend on both activity and mobility in agar.

Data set [4] deals with paravertebral muscle of New Zealand white rabbits. The conditions noted are these: in vivo. The source says:
This test assesses the local effects of material on contact with living tissue. Test article was implanted into paravertebral muscle of 3 New Zealand white rabbits, with negative control (GelFoam) implanted in the contralateral muscle of each animal. Healing was allowed for 2 weeks. Animals were sacrificed and implants excised. Excised implants were examined macroscopically with a magnifying lens and fixed in formalin. Histologic slides of hematoxylin and eosin (H&E) and Mason's Trichrome stained sections were prepared, studied microscopically by a board-certified veterinary pathologist, and evaluated on a scale of 0-3. CardioMatrix implants retained the initial implant volume, collagen fibers, and vascularization of the injection site.

In data set [5] the test system is rabbits. The experiment in a line: Rabbit Pyrogenicity (ISO-10993-11). Type of data set: in vivo. The conditions noted are these: intravenous injection of extract at 10 mL/kg. How it is done:
The purpose of the test was to detect the risk of a patient to a febrile reaction as a result of the administration of the test article extract. The test article was prepared by mixing 9 ml of the test article with 9 mL of 0.9% USP Sodium Chloride for Injection (NaCl) and the resulting gel extracted at a ration of 0.2 gm per 1.0 mL. The test article extract was administered by intravenous injection at 10 mL/kg. The rectal temperatures of the injected rabbits were compared with the temperature of a control rabbit similarly injected with 0.9% USP Sodium Chloride for Injection (NaCl). The base-line temperatures of the rabbits, determined no more than 30 minutes prior to injection of the test article extract, were used to exclude rabbits whose body temperatures vary by more than 1° C. from each other and whose temperatures are greater than 39.8° C. Body temperatures were recorded at 30 minute intervals between 1 and 3 hours subsequent to injection.

In data set [6] the test system is prothrombin coagulation time of human plasma. The experiment in a line: Prothrombin Time Assay, Human Plasma (ISO 10993-4).
Text: as §1
Prothrombin Time (Human Plasma, ISO 10993-4) measures the effect of a test article extract on human blood coagulation time. This assay has become a suitable clinical means of determining the presence and functioning ability of prothrombin in the process of coagulation.

Data set [7] has as its system rabbit blood (red blood cells). The experiment in a line: Hemolysis: Direct Contact (ISO 10993-4). Format: cell-based. The conditions noted are these: rabbit blood in direct contact, triplicate.
Text: as §1
The hemolysis test (Direct Contact, ISO-10993-4) measures the ability of a material to cause red blood cells to rupture. This test is derived from well-established NIH protocols and is performed in triplicate. This test uses rabbit blood in direct contact with the test material and the degree of hemolysis is measured spectrophotometrically.

Entries after “also recorded” stand apart in the source; their conditions may differ.

For the compound `CC(=O)N[C@@H](CCCNC(=N)N)C(=O)N[C@@H](C)C(=O)N[C@@H](CC(=O)O)C(=O)N[C@@H](C)C(=O)N[C@@H](CCCNC(=N)N)C(=O)N[C@@H](C)C(=O)N[C@@H](CC(=O)O)C(=O)N[C@@H](C)C(=O)N[C@@H](CCCNC(=N)N)C(=O)N[C@@H](C)C(=O)N[C@@H](CC(=O)O)C(=O)N[C@@H](C)C(=O)N[C@@H](CCCNC(=N)N)C(=O)N[C@@H](C)C(=O)N[C@@H](CC(=O)O)C(=O)N[C@@H](C)C(N)=O` [CardioMatrix, RADARADARADARADA], in the data set with rabbits [1], the “Irritant class by Primary Irritation Index” value is on record as ““Negligible”” and the “Signs of erythema or edema at injected sites” value is “did not exhibit signs of erythema or edema”. Further, the “Time until degraded and excreted” value in data set [2] is listed as ≤ 28 days. Moreover, in data set [3], the “Cytotoxicity: Agar Diffusion, biological reactivity” value is on record as “no-reactivity; also recorded: Non-cytotoxic”. Moreover, the “Rabbit Muscle Implant toxicity score” value in data set [4] came out at 0.13. Moreover, the “Rabbit pyrogenicity, febrile reaction” value with rabbits [5] is “None of the animals injected with the test article extract exhibited signs of pyrogenic response; also recorded: No effect on animals; also recorded: No febrile reaction from any animal”. For the same compound, the “Initiation of coagulation cascades (hemocompatibility tests)” value in data set [6] (direct contact with blood and plasma) was “do not initiate coagulation cascades”. In addition, in data set [6] (test article extract, human plasma), the “Effect on prothrombin coagulation time” value was “did not have an adverse effect”. For the same compound, the “Hemolysis: Direct Contact” value in data set [7] is listed as “Non-hemolytic”.
